Measurements reported in US20230159510A1, “NOVEL PRMT5 INHIBITORS” (AMGEN INC., priority 2020, published 2023).

Tests used:
HCT116 MTAP null cells = assay: HCT116 proliferation assay, MTAP null cells (CellTiter-Glo, 6 days); type: cell-based; settings: HCT116-MTAP null, 144 h, read-out: Protif_ HCT116-MTAP null IC50
Method in brief: (§1)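 RPMI 1640/10% FBS; overnight attachment at 37° C, 5% CO2; 8–9-pt 1:3 titration, top 1 or 10 µM; DMSO ctrl; luminescence readout.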

HCT116 WT cells = assay: HCT116 proliferation assay, WT cells (CellTiter-Glo, 6 days); type: cell-based; settings: Homo sapiens, HCT-116, 144 h, read-out: Prolif_HCT116-WT IC50
Method in brief: as §1

PRMT5/MEP50 = PRMT5/MEP50 (Homo sapiens, UniProt O14744); assay: MTase-Glo methyl transferase assay, Method A (Histone H4 peptide, 1 µM MTA, 24 h pre-incubation); type: biochemical; design: made in house; settings: read-out: PRMT5 MTase Glo Ki (nM, Meth. A)
Method in brief: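 PRMT5/MEP50 (10 nM) pre-incubated 24 h with compound, 5 µM SAM and 1 µM MTA, then reaction started with 1 µM Histone H4 (1-21) peptide and run 2 h at room temperature in Tris pH 8.0 buffer. SAH formed detected by MTase-Glo luminescence; IC50 and KI from dose-response curves.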

Chain of PRMT5/MEP50 (O14744 whole entry): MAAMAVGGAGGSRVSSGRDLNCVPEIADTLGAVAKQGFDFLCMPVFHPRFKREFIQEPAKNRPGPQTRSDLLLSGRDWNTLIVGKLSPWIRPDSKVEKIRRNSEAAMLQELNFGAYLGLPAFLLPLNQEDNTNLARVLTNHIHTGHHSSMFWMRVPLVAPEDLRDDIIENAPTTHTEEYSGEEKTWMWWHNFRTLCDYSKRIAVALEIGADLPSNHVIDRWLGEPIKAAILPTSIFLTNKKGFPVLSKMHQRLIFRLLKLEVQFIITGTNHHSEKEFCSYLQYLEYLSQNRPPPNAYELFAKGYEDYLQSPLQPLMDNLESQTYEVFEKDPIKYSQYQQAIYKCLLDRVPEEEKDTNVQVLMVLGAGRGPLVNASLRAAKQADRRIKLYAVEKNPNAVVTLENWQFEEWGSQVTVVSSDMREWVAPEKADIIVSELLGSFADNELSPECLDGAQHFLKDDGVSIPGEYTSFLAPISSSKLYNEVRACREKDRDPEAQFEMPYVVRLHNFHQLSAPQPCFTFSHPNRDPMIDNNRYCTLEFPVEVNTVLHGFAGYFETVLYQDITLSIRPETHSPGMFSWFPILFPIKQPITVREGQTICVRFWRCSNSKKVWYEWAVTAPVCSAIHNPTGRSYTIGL
Chain of PRMT5/MEP50 (Q9BQA1 whole entry partner): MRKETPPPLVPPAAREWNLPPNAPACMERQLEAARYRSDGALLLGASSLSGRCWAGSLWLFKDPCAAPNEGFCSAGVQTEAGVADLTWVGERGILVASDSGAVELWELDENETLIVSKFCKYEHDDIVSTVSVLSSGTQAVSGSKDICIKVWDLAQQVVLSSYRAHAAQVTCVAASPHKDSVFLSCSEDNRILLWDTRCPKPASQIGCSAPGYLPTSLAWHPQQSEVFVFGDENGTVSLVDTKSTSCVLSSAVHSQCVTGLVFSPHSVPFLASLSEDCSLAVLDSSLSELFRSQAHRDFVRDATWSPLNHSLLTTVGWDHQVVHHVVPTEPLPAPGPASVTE

IC50 (HCT116 MTAP null cells)	IC50 (HCT116 WT cells)	Ki (PRMT5/MEP50)	SMILES
319 nM	9080 nM	0.61 nM	C[C@H](c1ncccc1F)N(Cc1ccc(Br)nn1)C(=O)c1cnc2nc(N)c(Br)cc2c1 [Example 424, 7-amino-6-bromo-N-((6-bromo-3-pyridazinyl)methyl)-N-((1R)-1-(3-fluoro-2-pyridinyl)ethyl)-1,8-naphthyridine-3-carboxamide]
628 nM	8570 nM	1.87 nM	Cc1cc2cc(C(=O)N(Cc3ccc(Cl)cn3)CC(C)C)ccc2nc1N [Example 330, 2-amino-N-((5-chloro-2-pyridinyl)methyl)-3-methyl-N-(2-methylpropyl)-6-quinolinecarboxamide]
33 nM	592 nM	0.03 nM	COc1nc(C(F)(F)F)ccc1CN(C(=O)c1ccc2nc(N)c(C)cc2c1)[C@H](C)c1ncccn1 (single isomer, unassigned) [Example 469]
67 nM	1600 nM	0.29 nM	Cc1cc2cc(C(=O)N(Cc3ccc(C(F)(F)F)cn3)Cc3ncccc3F)c(F)cc2nc1N [Example 310, 2-amino-7-fluoro-N-((3-fluoro-2-pyridinyl)methyl)-3-methyl-N-((5-(trifluoromethyl)-2-pyridinyl)methyl)-6-quinolinecarboxamide]
341 nM	8570 nM	0.48 nM	Cc1cc2cc(C(=O)N(Cc3ccc(C(F)(F)F)cn3)[C@H](C)c3ncccn3)ncc2nc1N [Example 374, 2-amino-3-methyl-N-((1R)-1-(2-pyrimidinyl)ethyl)-N-((5-(trifluoromethyl)-2-pyridinyl)methyl)-1,7-naphthyridine-6-carboxamide]
849 nM	> 10000 nM	2 nM	Cc1cc2cc(C(=O)N(Cc3ccc(C(F)F)cn3)CC(C)C)ccc2nc1N [Example 324, 2-amino-N-((5-(difluoromethyl)-2-pyridinyl)methyl)-3-methyl-N-(2-methylpropyl)-6-quinolinecarboxamide]
35 nM	462 nM	0.19 nM	Cc1cc2cc(C(=O)N(Cc3ccc(C(F)(F)F)cn3)[C@H](C)c3ncn(C)n3)c(F)cc2nc1N (single isomer, unassigned) [Example 497]

Continued, compound first:

SMILES	IC50 (HCT116 MTAP null cells)	IC50 (HCT116 WT cells)	Ki (PRMT5/MEP50)
[2H]C([2H])([2H])Oc1ccc(CN(C(=O)c2ccc3nc(N)c(C)cc3c2)[C@H](C)c2ncccn2)nc1 (single isomer, unassigned) [Example 493]	146 nM	4080 nM	0.26 nM
Cc1cc2cc(C(=O)N(Cc3ccc(C(F)(F)F)cn3)[C@@H]3CCCNC3=O)ccc2nc1N (single isomer, unassigned) [Example 461]	322 nM	7780 nM	1.23 nM
C[C@H](c1ncccn1)N(Cc1ccc(Br)nn1)C(=O)c1cnc2nc(N)c(Br)cc2c1 [Example 350, 7-amino-6-bromo-N-((6-bromo-3-pyridazinyl)methyl)-N-((1R)-1-(2-pyrimidinyl)ethyl)-1,8-naphthyridine-3-carboxamide]	397 nM	> 10000 nM	0.56 nM
Cc1cc2cc(C(=O)N(Cc3ccc(C(F)(F)F)cn3)CC3CC3)ccc2nc1N [Example 325, 2-amino-N-(cyclopropylmethyl)-3-methyl-N-((5-(trifluoromethyl)-2-pyridinyl)methyl)-6-quinolinecarboxamide]	679 nM	6180 nM	2.76 nM
Cc1cc2cc(C(=O)N(Cc3ccc(C(F)(F)F)cn3)CC(F)(F)F)ccc2nc1N [Example 442, 2-amino-3-methyl-N-(2,2,2-trifluoroethyl)-N-((5-(trifluoromethyl)-2-pyridinyl)methyl)-6-quinolinecarboxamide]	969 nM	> 10000 nM	6.87 nM
Cc1cc2cc(C(=O)N(Cc3ccc(C(F)(F)F)nn3)[C@@H]3CCc4cccnc43)ccc2nc1N [Example 395, 2-amino-N-((7R)-6,7-dihydro-5H-cyclopenta[b]pyridin-7-yl)-3-methyl-N-((6-(trifluoromethyl)-3-pyridazinyl)methyl)-6-quinolinecarboxamide]	82 nM	2370 nM	0.16 nM
Cc1cc2cc(C(=O)N(Cc3ccc(C(F)(F)F)cn3)[C@@H]3CCCN(C)C3=O)ccc2nc1N (single isomer, unassigned) [Example 460]	155 nM	7850 nM	1.82 nM
CC[C@H](c1ncccn1)N(Cc1ccc(C(F)(F)F)cn1)C(=O)c1cc2cc(Br)c(N)nc2cn1 (single isomer, unassigned) [Example 499]	251 nM	> 10000 nM	0.18 nM
Cc1cc2cc(C(=O)N(Cc3ccc(C(F)(F)F)cn3)[C@H](C)c3ccc(F)cc3)ccc2nc1N [Example 360, 2-amino-N-((1R)-1-(4-fluorophenyl)ethyl)-3-methyl-N-((5-(trifluoromethyl)-2-pyridinyl)methyl)-6-quinolinecarboxamide]	199 nM	4810 nM	0.08 nM
Cc1cc2cc(C(=O)N(Cc3cc(C#N)ccn3)[C@H](C)c3ncccn3)ccc2nc1N [Example 513, 2-amino-N-((4-cyano-2-pyridinyl)methyl)-3-methyl-N-((1R)-1-(2-pyrimidinyl)ethyl)-6-quinolinecarboxamide]	552 nM	> 10000 nM	2.61 nM
C[C@H](c1ncccn1)N(Cc1ccc(C(F)(F)F)cn1)C(=O)c1cnc2nc(N)c(Cl)cc2c1 [Example 420, 7-amino-6-chloro-N-((1R)-1-(2-pyrimidinyl)ethyl)-N-((5-(trifluoromethyl)-2-pyridiny1)methyl)-1,8-naphthyridine-3-carboxamide]	225 nM	3450 nM	0.18 nM
Cc1cc2cc(C(=O)N(Cc3ccc(S(C)(=O)=O)cn3)[C@H](C)c3ncccc3F)ccc2nc1N [Example 541, (R)-2-amino-N-((5-(methylsulfonyl)pyridin-2-yl)methyl)-N-(1-(3-fluoropyridin-2-yl)ethyl)-3-methylquinoline-6-carboxamide]	198 nM	4140 nM	0.13 nM
Cc1cc2cc(C(=O)N(Cc3ccc(C#N)cn3)[C@H](C)c3ncccn3)ncc2nc1N [Example 418, 2-amino-N-((5-cyano-2-pyridinyl)methyl)-3-methyl-N-((1R)-1-(2-pyrimidinyl)ethyl)-1,7-naphthyridine-6-carboxamide]	500 nM	> 10000 nM	0.27 nM
COc1ccc(CN(C(=O)c2cc3cc(C)c(N)nc3cc2F)[C@@H](C)c2ncccn2)nn1 (single isomer, unassigned) [Example 480]	369 nM	1460 nM	1.49 nM
COC[C@@H](C)N(Cc1ccc(C(F)(F)F)cn1)C(=O)c1ccc2nc(N)c(C)cc2c1 [Example 507, 2-amino-N-((2R)-1-methoxy-2-propanyl)-3-methyl-N-((5-(trifluoromethyl)-2-pyridinyl)methyl)-6-quinolinecarboxamide]	46 nM	913 nM	0.15 nM
CC[C@H](c1ncccn1)N(Cc1ccc(C(F)(F)F)nn1)C(=O)c1ccc2nc(N)c(C)cc2c1 (single isomer, unassigned) [Example 495]	86 nM	3170 nM	0.06 nM
